Assay results from patent publication US8207313B2, “Natural products from Vinca” (William Marsh Rice University, priority 2007, dated 2012).

Experiments:
Assay type in all cases: cell-based, Human
MMP-9 = MMP-9 expression in LPS-stimulated THP-1 cells (gelatin zymography); conditions: THP-1 cells pre-treated 2 h with 5, 10 and 20 μg/ml compound, then 1 μg/ml LPS, supernatant at 24 h; MMP-2 internal control
Procedure: Several of the compounds were tested for pharmaceutical activity against two well known inflammatory mediators—MMP-9 and TNF-α. Compounds (1), (2), (3), and (4), were tested. An inflammatory reaction is stimulated with LPS and MMP-2 is used as an internal gene expression control.
The inhibitory effect of flavonoid glycoside compounds on MMP-9 expression (FIG. 1) was assayed in THP-1 cells stimulated with LPS. In panels A, C, E and G; THP-1 cells were pre-treated with 5, 10 and 20 μg/ml of the compound specified for 2 h. After pre-treatment with the relevant compound, the cells were then stimulated with 1 μg/ml LPS. The culture supernatants were collected 24 h after activation and subjected to substrate gel electrophoresis (gelatin zymography) and staining with Coomassie brilliant blue.

THP-1 cells = test: THP-1 cell viability, MTS assay; conditions: THP-1 cells treated with the compound as in the MMP-9 test
Procedure: In panels B, D, F and H; THP-1 cells were treated with the compound in A, C, E and G, and cell viability was tested with MTS assay.

TNF-α = TNF-α in culture supernatant of LPS-activated THP-1 cells (sandwich ELISA); conditions: THP-1 cells pre-treated 2 h with compound, 1 μg/ml LPS, supernatant at 24 h, ELISA in duplicate
Procedure: The blocking effect of compounds on cytokines expression (FIG. 2) induced by LPS in monocytic cell lines was then assessed. THP-1 cells were pre-treated with compounds for 2 h and activated with 1 μg/ml LPS. Culture supernatants were collected in 24 h and the TNF-α concentrations were measured using sandwich ELISA. Measurements were done in duplicate. […] Therefore the compounds work to suppress inflammatory response and are potent anti-inflammatory compounds.

Compound | inhibition of MMP-9 expression (MMP-9) | cell viability (THP-1 cells) | TNF-α production (TNF-α)
C/C=C(\C)[C@@H](CCC(C)CCCC(C)CCCC(C)C)OC1C(CO)OC(Oc2cc(O)c3c(=O)c(O)c(-c4ccc(OC)c(OC)c4)oc3c2)C(O)C1O (stereo partly drawn) [Compound (1), 3,5,7-trihydroxy-3′,4′-dimethoxyflavone-7β-D-glucopyranosyl(4″-13′″)2′″,6′″,10′″,14′″-tetramethyl hexadec-14-ene] | inhibits MMP-9 expression in a dose dependant manner | no negative impact on cell viability | inhibited
CCC(C)C(CCC(C)CCCC(C)CCCC(C)C)OC1(CO)COC(COc2c(-c3ccc(OC)cc3)oc3cc(O)cc(O)c3c2=O)C(O)C1O [Compound (2), 3,5,7-trihydroxy-4′-methoxyflavone-3β-D-glucopyranosyl (4″-13′″)-2′″,6′″,10′″,14′″-tetramethyl hexadecane] | inhibits MMP-9 expression in a dose dependant manner | no negative impact on cell viability | inhibited
C=C(CCC=C(C)C)CC/C=C(\C)CC(=O)OCC1OC(Oc2ccc3c(c2)OC(c2ccc(OC)c(OC)c2)CC3=O)C(O)C(O)C1O (stereo not drawn) [Compound (3)] | inhibits MMP-9 expression in a dose dependant manner | no negative impact on cell viability | inhibited
